Test results published in ChEMBL document CHEMBL4507299, “Data for DCP probe PF-04554878” (2021).

Experiments:
[1] = system: Proto-oncogene tyrosine-protein kinase receptor Ret (Homo sapiens), P07949 [M918T]
[2] = molecular target: Serine/threonine-protein kinase NIM1 (Homo sapiens) (UniProt Q8IY84)
[3] = system: Tyrosine-protein kinase ABL1 (Homo sapiens), P00519 [F317I]
[4] = molecular target: Mitogen-activated protein kinase kinase kinase kinase 1 (Homo sapiens) (UniProt Q92918)
[5] = molecular target: Ribosomal protein S6 kinase alpha-1 (Homo sapiens) (UniProt Q15418)
[6] = molecular target: T1, Serine/threonine-protein kinase 3 (Homo sapiens) (UniProt Q13188)
T1 sequence (whole entry): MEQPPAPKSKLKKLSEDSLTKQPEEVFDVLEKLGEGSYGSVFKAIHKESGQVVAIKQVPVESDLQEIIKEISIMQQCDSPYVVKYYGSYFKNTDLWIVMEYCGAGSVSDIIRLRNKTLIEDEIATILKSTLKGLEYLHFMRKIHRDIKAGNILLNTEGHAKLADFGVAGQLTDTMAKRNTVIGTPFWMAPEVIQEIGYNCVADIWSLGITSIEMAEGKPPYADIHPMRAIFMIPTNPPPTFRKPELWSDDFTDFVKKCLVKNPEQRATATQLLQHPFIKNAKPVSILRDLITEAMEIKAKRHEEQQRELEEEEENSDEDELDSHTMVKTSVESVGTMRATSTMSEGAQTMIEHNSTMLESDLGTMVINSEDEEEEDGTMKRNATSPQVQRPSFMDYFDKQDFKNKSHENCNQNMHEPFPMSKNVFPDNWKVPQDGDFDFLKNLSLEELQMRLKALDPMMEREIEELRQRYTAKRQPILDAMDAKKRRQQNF

[7] = system: Phosphatidylinositol 4,5-bisphosphate 3-kinase catalytic subunit alpha isoform (Homo sapiens), P42336 [I800L]
[8] = molecular target: Tyrosine-protein kinase FRK (Homo sapiens) (UniProt P42685)
[9] = molecular target: Vascular endothelial growth factor receptor 1 (Homo sapiens, UniProt P17948)
[10] = molecular target: Myosin-IIIa (Homo sapiens) (UniProt Q8NEV4)
[11] = molecular target: Mitogen-activated protein kinase 7 (Homo sapiens) (UniProt Q13164)
[12] = molecular target: Tyrosine-protein kinase Mer (Homo sapiens) (UniProt Q12866)
[13] = molecular target: Tyrosine-protein kinase ABL2 (Homo sapiens) (UniProt P42684)
[14] = molecular target: T2, Inhibitor of nuclear factor kappa-B kinase subunit epsilon (Homo sapiens) (UniProt Q14164)
T2 sequence (whole entry): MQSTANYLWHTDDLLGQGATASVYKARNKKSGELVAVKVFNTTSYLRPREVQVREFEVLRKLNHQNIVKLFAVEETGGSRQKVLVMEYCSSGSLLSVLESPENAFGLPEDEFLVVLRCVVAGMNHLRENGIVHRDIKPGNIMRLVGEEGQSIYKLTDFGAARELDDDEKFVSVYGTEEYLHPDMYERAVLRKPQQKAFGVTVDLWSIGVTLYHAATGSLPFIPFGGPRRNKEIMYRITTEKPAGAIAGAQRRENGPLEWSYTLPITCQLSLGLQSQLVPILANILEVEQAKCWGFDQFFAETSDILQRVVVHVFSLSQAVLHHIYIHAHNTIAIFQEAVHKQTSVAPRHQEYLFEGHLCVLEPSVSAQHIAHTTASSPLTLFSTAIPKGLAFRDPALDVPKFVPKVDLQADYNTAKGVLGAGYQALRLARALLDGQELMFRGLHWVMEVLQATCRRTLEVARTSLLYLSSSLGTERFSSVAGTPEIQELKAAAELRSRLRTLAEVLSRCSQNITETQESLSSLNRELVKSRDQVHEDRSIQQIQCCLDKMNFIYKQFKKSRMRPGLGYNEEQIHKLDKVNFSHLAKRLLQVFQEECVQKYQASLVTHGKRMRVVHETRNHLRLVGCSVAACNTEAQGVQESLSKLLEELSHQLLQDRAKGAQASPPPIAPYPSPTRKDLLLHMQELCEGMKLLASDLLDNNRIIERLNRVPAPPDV

[15] = system: Phosphatidylinositol 4,5-bisphosphate 3-kinase catalytic subunit alpha isoform (Homo sapiens), P42336 [H1047Y]
[16] = molecular target: Serine/threonine-protein kinase LATS2 (Homo sapiens) (UniProt Q9NRM7)
[17] = system: Phosphatidylinositol 4,5-bisphosphate 3-kinase catalytic subunit alpha isoform (Homo sapiens), P42336 [E542K]
[18] = molecular target: Dual specificity protein kinase TTK (Homo sapiens) (UniProt P33981)
[19] = molecular target: Dual specificity mitogen-activated protein kinase kinase 2 (Homo sapiens) (UniProt P36507)
[20] = molecular target: Serine/threonine-protein kinase Nek10 (Homo sapiens) (UniProt Q6ZWH5)
[21] = molecular target: Serine/threonine-protein kinase PAK 5 (Homo sapiens) (UniProt Q9P286)
[22] = molecular target: Muscle, skeletal receptor tyrosine-protein kinase (Homo sapiens) (UniProt O15146)
[23] = molecular target: Dual specificity mitogen-activated protein kinase kinase 5 (Homo sapiens) (UniProt Q13163)
[24] = molecular target: Cyclin-dependent kinase 11A (Homo sapiens) (UniProt Q9UQ88)
[25] = system: Phosphatidylinositol 4,5-bisphosphate 3-kinase catalytic subunit alpha isoform (Homo sapiens), P42336 [C420R]
[26] = molecular target: Ephrin type-A receptor 2 (Homo sapiens) (UniProt P29317)
[27] = molecular target: Tyrosine-protein kinase Fes/Fps (Homo sapiens) (UniProt P07332)
[28] = molecular target: Serine/threonine-protein kinase pim-3 (Homo sapiens) (UniProt Q86V86)
[29] = Compound concentration 100.0 nM
[30] = Compound concentration 1000.0 nM

Ribosomal protein S6 kinase alpha-1 (Homo sapiens), sequence (Q15418 whole entry): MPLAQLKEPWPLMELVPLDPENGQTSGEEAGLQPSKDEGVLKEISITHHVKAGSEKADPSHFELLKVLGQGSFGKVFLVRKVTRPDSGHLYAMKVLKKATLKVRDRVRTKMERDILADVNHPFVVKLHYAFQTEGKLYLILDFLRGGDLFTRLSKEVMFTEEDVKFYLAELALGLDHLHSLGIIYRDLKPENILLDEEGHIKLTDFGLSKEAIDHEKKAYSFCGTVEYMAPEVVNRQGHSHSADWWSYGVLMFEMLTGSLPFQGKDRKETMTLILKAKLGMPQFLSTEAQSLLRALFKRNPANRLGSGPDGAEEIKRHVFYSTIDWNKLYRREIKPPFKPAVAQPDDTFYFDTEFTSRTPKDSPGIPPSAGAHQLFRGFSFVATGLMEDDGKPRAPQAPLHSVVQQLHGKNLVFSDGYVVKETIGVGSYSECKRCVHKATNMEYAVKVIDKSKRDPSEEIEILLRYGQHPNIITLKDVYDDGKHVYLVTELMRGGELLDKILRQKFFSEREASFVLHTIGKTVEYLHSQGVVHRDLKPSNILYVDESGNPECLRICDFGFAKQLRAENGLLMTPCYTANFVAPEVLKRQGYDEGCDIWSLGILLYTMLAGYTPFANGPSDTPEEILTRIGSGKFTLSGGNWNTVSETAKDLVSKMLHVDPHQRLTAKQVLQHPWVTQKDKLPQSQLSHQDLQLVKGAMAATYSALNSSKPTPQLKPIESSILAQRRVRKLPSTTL
Myosin-IIIa (Homo sapiens), sequence (Q8NEV4 whole entry): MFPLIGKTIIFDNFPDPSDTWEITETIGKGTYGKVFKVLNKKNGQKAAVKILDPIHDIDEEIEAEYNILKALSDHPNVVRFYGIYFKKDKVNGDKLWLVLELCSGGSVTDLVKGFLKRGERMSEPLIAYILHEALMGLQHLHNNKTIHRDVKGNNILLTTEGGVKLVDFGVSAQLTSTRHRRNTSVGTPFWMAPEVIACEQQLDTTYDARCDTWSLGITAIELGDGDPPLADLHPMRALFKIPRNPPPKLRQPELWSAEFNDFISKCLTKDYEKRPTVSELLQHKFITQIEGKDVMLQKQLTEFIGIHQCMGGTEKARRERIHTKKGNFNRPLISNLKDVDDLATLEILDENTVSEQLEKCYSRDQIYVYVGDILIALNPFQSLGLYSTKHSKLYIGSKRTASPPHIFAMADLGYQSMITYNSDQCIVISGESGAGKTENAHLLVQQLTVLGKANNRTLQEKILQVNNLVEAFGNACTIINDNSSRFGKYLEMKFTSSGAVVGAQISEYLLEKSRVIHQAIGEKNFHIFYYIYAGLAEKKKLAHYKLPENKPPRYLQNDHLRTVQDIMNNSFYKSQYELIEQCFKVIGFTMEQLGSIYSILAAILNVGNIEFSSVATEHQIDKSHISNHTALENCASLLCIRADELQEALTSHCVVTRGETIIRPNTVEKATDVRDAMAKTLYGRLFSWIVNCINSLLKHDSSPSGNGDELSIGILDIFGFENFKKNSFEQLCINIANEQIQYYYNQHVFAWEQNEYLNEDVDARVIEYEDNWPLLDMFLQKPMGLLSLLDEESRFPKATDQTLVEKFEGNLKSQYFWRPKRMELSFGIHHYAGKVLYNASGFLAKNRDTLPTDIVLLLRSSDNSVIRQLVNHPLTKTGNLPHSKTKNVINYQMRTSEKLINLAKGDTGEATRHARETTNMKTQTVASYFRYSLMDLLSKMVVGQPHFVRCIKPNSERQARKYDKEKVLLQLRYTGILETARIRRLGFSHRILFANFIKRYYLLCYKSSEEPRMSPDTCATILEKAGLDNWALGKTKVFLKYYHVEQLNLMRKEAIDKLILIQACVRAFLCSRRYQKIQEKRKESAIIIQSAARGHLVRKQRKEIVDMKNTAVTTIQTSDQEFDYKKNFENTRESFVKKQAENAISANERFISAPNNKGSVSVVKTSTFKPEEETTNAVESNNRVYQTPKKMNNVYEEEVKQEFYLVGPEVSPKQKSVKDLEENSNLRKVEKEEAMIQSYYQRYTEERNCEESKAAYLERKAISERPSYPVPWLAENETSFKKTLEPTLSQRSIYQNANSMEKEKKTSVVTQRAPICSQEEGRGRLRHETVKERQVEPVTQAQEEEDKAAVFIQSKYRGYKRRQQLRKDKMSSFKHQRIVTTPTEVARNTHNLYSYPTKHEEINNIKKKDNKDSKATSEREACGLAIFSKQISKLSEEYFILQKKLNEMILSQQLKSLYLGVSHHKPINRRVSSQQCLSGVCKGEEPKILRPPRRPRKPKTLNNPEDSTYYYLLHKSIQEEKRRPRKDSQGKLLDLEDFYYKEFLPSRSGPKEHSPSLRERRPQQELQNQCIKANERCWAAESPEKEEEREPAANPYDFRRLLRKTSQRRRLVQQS
Tyrosine-protein kinase Mer (Homo sapiens), sequence (Q12866 whole entry): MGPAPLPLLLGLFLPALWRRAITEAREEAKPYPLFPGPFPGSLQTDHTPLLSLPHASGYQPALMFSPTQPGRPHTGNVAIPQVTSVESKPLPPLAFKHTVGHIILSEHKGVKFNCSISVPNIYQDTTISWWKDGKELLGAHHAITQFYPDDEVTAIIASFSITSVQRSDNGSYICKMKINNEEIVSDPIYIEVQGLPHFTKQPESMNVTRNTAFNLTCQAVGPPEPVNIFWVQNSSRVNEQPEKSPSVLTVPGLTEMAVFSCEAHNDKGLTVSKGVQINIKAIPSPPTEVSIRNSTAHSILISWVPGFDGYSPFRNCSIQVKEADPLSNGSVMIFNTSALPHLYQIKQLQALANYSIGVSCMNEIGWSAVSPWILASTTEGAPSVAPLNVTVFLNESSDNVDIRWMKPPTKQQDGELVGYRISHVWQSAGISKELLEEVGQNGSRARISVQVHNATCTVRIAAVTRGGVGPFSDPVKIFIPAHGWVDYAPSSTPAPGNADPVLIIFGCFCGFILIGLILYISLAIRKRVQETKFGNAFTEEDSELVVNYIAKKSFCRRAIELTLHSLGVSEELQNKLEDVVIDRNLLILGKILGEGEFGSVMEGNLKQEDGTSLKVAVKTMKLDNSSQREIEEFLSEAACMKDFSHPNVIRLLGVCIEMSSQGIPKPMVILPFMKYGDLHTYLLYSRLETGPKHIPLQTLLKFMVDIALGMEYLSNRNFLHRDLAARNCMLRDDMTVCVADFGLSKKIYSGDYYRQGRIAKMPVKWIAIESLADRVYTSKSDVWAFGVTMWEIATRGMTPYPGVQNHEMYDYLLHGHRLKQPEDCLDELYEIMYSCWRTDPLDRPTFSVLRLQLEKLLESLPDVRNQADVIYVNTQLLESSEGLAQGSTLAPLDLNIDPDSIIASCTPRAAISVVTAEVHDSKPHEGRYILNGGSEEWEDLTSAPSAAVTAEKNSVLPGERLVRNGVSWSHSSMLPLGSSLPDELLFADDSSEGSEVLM
Muscle, skeletal receptor tyrosine-protein kinase (Homo sapiens), sequence (O15146 whole entry): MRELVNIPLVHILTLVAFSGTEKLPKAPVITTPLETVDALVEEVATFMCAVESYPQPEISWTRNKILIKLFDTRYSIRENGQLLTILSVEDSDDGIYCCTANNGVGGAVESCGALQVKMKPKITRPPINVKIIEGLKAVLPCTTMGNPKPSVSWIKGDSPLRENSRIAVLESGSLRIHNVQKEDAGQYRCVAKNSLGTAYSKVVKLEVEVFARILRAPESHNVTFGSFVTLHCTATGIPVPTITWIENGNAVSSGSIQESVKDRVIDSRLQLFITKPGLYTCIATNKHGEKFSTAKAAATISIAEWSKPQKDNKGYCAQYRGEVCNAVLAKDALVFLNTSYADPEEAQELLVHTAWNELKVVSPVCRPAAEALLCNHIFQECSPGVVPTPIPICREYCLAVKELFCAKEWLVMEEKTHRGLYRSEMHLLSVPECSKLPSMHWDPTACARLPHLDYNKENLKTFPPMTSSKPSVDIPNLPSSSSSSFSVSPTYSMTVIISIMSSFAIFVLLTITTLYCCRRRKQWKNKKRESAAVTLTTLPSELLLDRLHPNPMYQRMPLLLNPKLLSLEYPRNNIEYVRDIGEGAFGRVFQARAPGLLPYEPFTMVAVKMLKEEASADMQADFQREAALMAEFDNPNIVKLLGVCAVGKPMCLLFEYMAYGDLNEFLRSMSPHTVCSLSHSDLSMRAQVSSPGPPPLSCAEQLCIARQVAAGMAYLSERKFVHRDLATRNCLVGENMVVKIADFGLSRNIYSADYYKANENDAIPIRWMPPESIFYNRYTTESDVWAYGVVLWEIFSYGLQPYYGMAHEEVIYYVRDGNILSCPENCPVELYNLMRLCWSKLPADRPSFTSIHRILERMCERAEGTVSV
Mitogen-activated protein kinase kinase kinase kinase 1 (Homo sapiens), sequence (Q92918 whole entry, looked up): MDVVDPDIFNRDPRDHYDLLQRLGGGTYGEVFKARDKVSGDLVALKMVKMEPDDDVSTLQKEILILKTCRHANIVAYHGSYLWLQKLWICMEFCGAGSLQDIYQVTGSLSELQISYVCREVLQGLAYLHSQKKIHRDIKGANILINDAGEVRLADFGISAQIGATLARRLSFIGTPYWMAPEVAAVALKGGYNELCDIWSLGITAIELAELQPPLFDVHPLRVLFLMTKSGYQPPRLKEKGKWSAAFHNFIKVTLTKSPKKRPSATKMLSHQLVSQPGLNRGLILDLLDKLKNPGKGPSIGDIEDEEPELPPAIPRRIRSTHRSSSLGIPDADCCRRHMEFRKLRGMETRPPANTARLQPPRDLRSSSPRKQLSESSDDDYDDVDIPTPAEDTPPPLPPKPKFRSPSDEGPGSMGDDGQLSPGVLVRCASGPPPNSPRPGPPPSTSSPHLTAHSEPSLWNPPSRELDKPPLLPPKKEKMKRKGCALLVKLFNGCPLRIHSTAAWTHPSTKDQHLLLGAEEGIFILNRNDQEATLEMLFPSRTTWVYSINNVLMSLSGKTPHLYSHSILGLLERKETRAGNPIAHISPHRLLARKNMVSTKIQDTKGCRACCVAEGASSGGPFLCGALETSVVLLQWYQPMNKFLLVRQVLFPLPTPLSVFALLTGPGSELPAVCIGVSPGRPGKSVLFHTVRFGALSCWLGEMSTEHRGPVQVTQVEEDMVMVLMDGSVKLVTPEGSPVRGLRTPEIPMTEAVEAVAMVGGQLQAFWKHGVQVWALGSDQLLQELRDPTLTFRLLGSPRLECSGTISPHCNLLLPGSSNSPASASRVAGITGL

In the case of `CNC(=O)c1ccc(Nc2ncc(C(F)(F)F)c(NCc3nccnc3N(C)S(C)(=O)=O)n2)cc1` [DEFACTINIB], the residual activity [1, 29] is reported as 72%, the residual activity [2, 29] is reported as 100% and the residual activity [3, 29] is reported as 100%. It also gave a residual activity [4, 29] of 18%, a residual activity [5, 29] of 71% and a residual activity [6, 29] of 68%. For the same compound, the residual activity [7, 29] was 100%, the residual activity [8, 29] was 100% and the residual activity [9, 29] was 63%. It also gave a residual activity [10, 29] of 100%, a residual activity [11, 29] of 87% and a residual activity [12, 29] of 54%. The residual activity [13, 29] was 93%, the residual activity [14, 29] was 99% and the residual activity [15, 29] was 100%. For the same compound, the residual activity [16, 29] was 65%, the residual activity [17, 29] was 49% and the residual activity [18, 29] was 8.3%. The residual activity [19, 29] was 100%, the residual activity [20, 29] was 100% and the residual activity [21, 29] was 62%. For the same compound, the residual activity [22, 29] was 100%, the residual activity [23, 29] was 89% and the residual activity [24, 29] was 77%. It also gave a residual activity [25, 29] of 100%, a residual activity [26, 29] of 86% and a residual activity [27, 29] of 82%. It also gave a residual activity [28, 29] of 82%.
For `CN(c1ccnc(CNc2nc(Nc3ccc4c(c3)CC(=O)N4)ncc2C(F)(F)F)n1)S(C)(=O)=O` [PF-00911705], the residual activity [1, 30] was 50%, the residual activity [2, 30] was 9.5% and the residual activity [3, 30] was 100%. It also gave a residual activity [4, 30] of 33%, a residual activity [5, 30] of 68% and a residual activity [6, 30] of 46%. The residual activity [7, 30] was 84%, the residual activity [8, 30] was 93% and the residual activity [9, 30] was 69%. For the same compound, the residual activity [10, 30] was 100%, the residual activity [11, 30] was 78% and the residual activity [12, 30] was 21%. For the same compound, the residual activity [13, 30] was 75%, the residual activity [14, 30] was 18% and the residual activity [15, 30] was 85%. The residual activity [16, 30] was 42%, the residual activity [17, 30] was 100% and the residual activity [18, 30] was 13%. The residual activity [19, 30] was 82%, the residual activity [20, 30] was 90% and the residual activity [21, 30] was 76%. For the same compound, the residual activity [22, 30] was 92%, the residual activity [23, 30] was 48% and the residual activity [24, 30] was 94%. For the same compound, the residual activity [25, 30] was 91%, the residual activity [26, 30] was 80% and the residual activity [27, 30] was 74%. The residual activity [28, 30] was 77%.
